The source of these data is patent publication US5208152A, “Catalysts of Diels-Alder reactions, methods and catalysts therefor” (The Scripps Research Institute, priority 1992, dated 1993).

The subject of this assay is monoclonal catalytic antibody 1E9 (reductively methylated), secreted by hybridoma 1E9, ATCC HB 10261. The experiment in a line: Antibody-catalyzed Diels-Alder [4+2] cycloaddition/fragmentation reaction between TCTD and N-ethylmaleimide. The format is biochemical, mouse. The text has this:
Because TCTD reacts with lysine residues on the surface of the immunoglobulins, it was necessary to reduce the nucleophilicity of the amino groups by exhaustive reductive methylation [Jentoft et al., J. Biol. Chem., 254:4359 (1979)]. […] Chemical modification of immunoglobulins in this way is likely to be of general value, as it will permit reactive molecules like epoxides, Michael acceptors or other alkylating agents to be employed as substrates for catalytic antibodies.
The methylated antibodies were assayed at 25 degrees C. for their ability to promote the Diels-Alder [4+2] cycloaddition/fragmentation reaction between TCTD and N-ethylmaleimide (NEM) in aqueous buffer (20 mM MES, 100 mM NaCl, pH 6.0) containing 10 percent acetonitrile. Cycloadditions were followed by monitoring the disappearance of TCTD at 330 nm or by analytical reverse-phase HPLC. HPLC kinetic assays were performed on a Vydac C-18 218-TP-510 reverse phase column (10 mm×25 cm, 2 mL/min, gradient elution from 100 percent H2 O to 60:40 CH3 CN:H2 O in 20 minutes, then 5 minutes at the latter solvent composition) using acetophenone as an internal standard.

Broadly, the Km is the concentration of substrate that gives half-maximal velocity. Turning to `CCN1C(=O)C=CC1=O` [NEM, N-ethylmaleimide], for the setting “NEM concentration varied, 0.61 mM TCTD held constant, 25 degrees C, 20 mM MES, 100 mM NaCl, pH 6.0, 10 percent acetonitrile”, the apparent kcat turned out to be 0.0717 ± 0.005 s⁻¹. Further, the Km (NEM concentration varied, 0.61 mM TCTD held constant, 25 degrees C, 20 mM MES, 100 mM NaCl, pH 6.0, 10 percent acetonitrile, read-out: apparent (Km)NEM) stood at 21 ± 4 mM.

Take `CCN1C(=O)C2C(C1=O)C1(Cl)C(Cl)=C(Cl)C2(Cl)C1(Cl)Cl` (stereo not drawn) [Compound 3]: the “inhibition of the catalyzed reaction” value (preincubation of the antibody with an equimolar amount of the inhibitor) is “stopped the oatalyzed reaction completely”.
